# Results from patent US3939268A, “2,4-Diamino substituted pyridol(3,2-d)pyrimidine as antithrombotic agents” (Boehringer Ingelheim GmbH, priority 1971, dated 1976).
# Where a name gives a salt, the structure may show the parent alone.
# What was measured:
# [1] = test system: thrombocyte aggregation / platelet stickiness (human blood); experiment: retention test according to Morris (reduction in platelet stickiness, glass beads); type: cell-based; settings: 5×10^-5 mol/liter, 10 minutes at 37°C, average of 4 - 6 determinations; for inhibition at 50 µM: Platelet, 10 min
# Method: The inhibiting effect upon the platelet stickiness was determined by means of the so-called retention test according to Morris [see E. Deutsch et al, 1.Internationales Symposium uber Stoffwechsel and Membranpermeabilitat von Erythrocyten and Thrombocyten, Vienna, Austria (1969); Georg Thieme Verlag, Stuttgart, Germany]. […] To determine the inhibiting action of the test compound upon thrombocyte aggregation, 1 ml of human blood is pipetted into small test tubes, and the test compound is added to a final concentration of 5×10^^-5 mol/liter. The tubes are incubated for 10 minutes at 37°C. 1 gm of glass beads (glass beads for gas-chromatography) is added to half of the tubes. Finally the closed tubes are attached to a vertical wheel and rotated for 1 minute. By this means good contact is obtained between the glass beads and the blood. The tubes are then allowed to stand at room temperature for another hour, after which time a satisfactory sedimentation of erythrocytes has taken place. 0.01 ml of the supernatant plasma is removed, diluted to 1 : 8,000 with celloscope solution, and the platelet count is read in the celloscope. The percent reduction in the stickiness due to the presence of the substance (compared to tubes without glass beads) is measured and the average of 4 - 6 determinations is taken.
# acute toxicity (LD50) = settings: mouse, in vivo, po, mice, observation time 14 days; for mortality at 336 h: p.o., printed with LD50 >250 mg/kg, read-out: animals died
# Method: 3. The acute toxicity of some of the compounds for orientation (observationtime : 14 days) was determined on mice, or the LD50 was calculated from the percentage of animals which died after different doses within the observation time [see J. Pharmacol. exper. Therap. 96, 99(1949)].
# bleeding time = experiment: prolongation of the bleeding time (method of Duke); type: in vivo; settings: non-anesthetized mice, 10 mgm/kg per os, after one hour, compared to untreated animals; for change in vivo at 10 mg/kg: Mus musculus, po, 1 h
# Source text: The prolonging effect upon the bleeding time was ascertained by the method of Duke, J. Amer. Med. Assoc. 15, 1185 (1910). 2. To determine the bleeding time, 10 mgm/kg of the test compound is given per os to non-anesthetized mice. After one hour, about 0.5 mm is cut off from the tail of each animal. The exuded blood is soaked up with filter paper every 30 seconds. The number of drops of blood so obtained is used as a measure for the bleeding time compared to untreated animals (5 animals/test).
# [2] = test system: anesthetized cats and dogs; experiment: hypotensive tests (method of Eckenhoff); type: in vivo; settings: in words, warm-blooded animals, such as mice
# Method: The hypotensive tests were performed on anesthetized cats and dogs by the method of Eckenhoff, Amer. J. Physiol. 148, 582 (1947).
SMILES,inhibition at 50 µM [1] [%],change in vivo at 10 mg/kg (bleeding time) [%],other results
"O=C(O)/C=C\C(=O)O.c1cnc2c(N3CCSCC3)nc(N3CCNCC3)nc2c1 [A, 2-piperazino-4-thiomorpholinopyrido[3,2-d]pyrimidine maleate]",99,171,LD50 at 336 h (acute toxicity (LD50)): 413 mg/kg
"c1cnc2c(N3CCCCC3)nc(N3CCNCC3)nc2c1 [K, 2-piperazino-4-piperidino-pyrido[3,2-d]pyrimidine dihydrochloride]",39,138,
"[O-][S+]1CCN(c2nc(N3CCNCC3)c3ncccc3n2)CC1 [O, 2-(1'-oxido-thiomorpholino)-4-piperazino-pyrido [3,2-d]pyrimidine]",98,35,hypotensive activity [2]: particularly pronounced; LD50 at 336 h (acute toxicity (LD50)): > 250 mg/kg; mortality at 336 h (acute toxicity (LD50)): 0%
"OCCCN(CCCO)c1nc(N2CCCCC2)c2ncccc2n1 [L, 2-(dipropanol-amino)-4-piperidino-pyrido[3,2-d]pyrimidine hydrochloride]",20,103,
"Cc1ccc2nc(N3CCSCC3)nc(N3CCNCC3)c2n1 [Q, 2-thiomorpholino-4-piperazino-6-methyl-pyrido[3,2-d] pyrimidine dihydrochloride]",34,,
"Cl.[O-][S+]1CCN(c2nc(N(CCO)CCCCCCO)nc3cccnc23)CC1 [F, 2-(n-ethanol-hexanolamino)-4-(1'-oxido-thiomorpholino)-pyrido[3,2-d]pyrimidine hydrochloride]",,,Reduction in Stickiness ([1]; 50 µM): 71%; Prolongation of Bleeding Time (bleeding time): 35%
"CN1CCN(c2nc(N3CC[S+]([O-])CC3)c3ncccc3n2)CC1 [D, 2-(n'-methyl-piperazino)-4-(1'-oxido-thiomorpholino)-pyrido[3,2-d]pyrimidine dihydrochloride]",87,88,
"O=S1(=O)CCN(c2nc(N3CCNCC3)nc3cccnc23)CC1 [M, 2-piperazino-4-(1',1'-dioxide-thiomorpholino)-pyrido[3,2-d]pyrimidine dihydrochloride]",88,98,LD50 at 336 h (acute toxicity (LD50)): > 250 mg/kg; mortality at 336 h (acute toxicity (LD50)): 0%
"[O-][S+]1CCN(c2nc(N(CCCO)CCCO)nc3cccnc23)CC1 [E, 2-(dipropanol-amino)-4-(1'-oxido-thiomorpholino)-pyrido[3,2-d]pyrimidine hydrochloride]",88,40,
"c1cnc2c(N3CCNCC3)nc(N3CCSCC3)nc2c1 [Example 27, 2-Thiomorpholino-4-piperazino-pyrido[3,2-d]pyrimidine]",,,hypotensive activity [2]: particularly pronounced
"CN1CCN(c2nc(N3CCSCC3)c3ncccc3n2)CC1 [B, 2-(n'-methyl-piperazino)-4-thiomorpholino-pyrido[3,2-d] pyrimidine dihydrochloride]",53,118,
"OCCCN(CCCO)c1nc(N2CCOCC2)c2ncccc2n1 [J, 2-(dipropanol-amino)-4-morpholino-pyrido[3,2-d]pyrimidine dihydrochloride]",50,45,
"CC1CN(c2nc(N3CCNCC3)nc3cccnc23)CC[S+]1[O-] (stereo not shown) [G, 2-piperazino-4-(1'-oxido-2'-methyl-thiomorpholino)-pyrido[3,2-d]pyrimidinedihydrochloride]",96,55,
"c1cnc2c(N3CCOCC3)nc(N3CCNCC3)nc2c1 [H, 2-piperazino-4-morpholino-pyrido[3,2-d]pyrimidine dihydrochloride]",96,55,
"Cl.Cl.c1cnc2c(N3CCCCC3)nc(N3CCSCC3)nc2c1 [N, 2-thiomorpholino-4-piperidino-pyrido[3,2-d]pyrimidine dihydrochloride]",77,98,LD50 at 336 h (acute toxicity (LD50)): > 250 mg/kg; mortality at 336 h (acute toxicity (LD50)): 0%
"Cc1ccc2nc(N3CCNCC3)nc(N3CC[S+]([O-])CC3)c2n1 [P, 2-piperazino-4-(1'-oxido-thiomorpholino)-6-methylpyrido[3,2-d]pyrimidine d ihydrochloride]",89,98,
"Cl.Cl.[O-][S+]1CCN(c2nc(N3CCNCC3)nc3cccnc23)CC1 [C, 2-piperazino-4-(1'-oxido-thiomorpholino)-pyrido[3,2-d] pyrimidine dihydrochloride]",99,,hypotensive activity [2]: particularly pronounced; LD50 at 336 h (acute toxicity (LD50)): 872 mg/kg
"CN1CCN(c2nc(N3CCOCC3)c3ncccc3n2)CC1 [I, 2-(n'-methyl-piperazino)-4-morpholino-pyrido[3,2-d] pyrimidine dihydrochloride]",70,40,
